Holding throughout (assay type): in vivo
Details in all cases: 50 ppm, 100 = 100% disease control, 0 = no control

One experiment deals with Botrytis cinerea. Nature of the experiment: Test E: tomato Botrytis, preventive spray on tomato seedlings. The gist of the method:
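Preventive test: seedlings sprayed to run-off with compound in acetone/water (50/50) plus 250 ppm PEG400, inoculated one day later with B. cinerea spores. Held 48 h saturated at 20° C, then 3 days at 24° C; disease control scored visually from 0 to 100 versus controls.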

Experiment [1] deals with Blumeria graminis f. sp. tritici. Nature of the experiment: Test C: wheat powdery mildew, preventive spray on wheat seedlings. An excerpt: General protocol for preparing test suspensions for Tests A-F: the test compounds were first dissolved in acetone in an amount equal to 3% of the final volume and then suspended at the desired concentration (in ppm) in acetone and purified water (50/50 mix by volume) containing 250 ppm of the surfactant PEG400 (polyhydric alcohol esters). The resulting test suspensions were then used in Tests A-F.
The test suspension was sprayed to the point of run-off on wheat seedlings. The following day the seedlings were inoculated with a spore dust of Blumeria graminis f. sp. tritici, (also known as Erysiphe graminis f. sp. tritici, the causal agent of wheat powdery mildew) and incubated in a growth chamber at 20° C. for 8 days, after which time visual disease ratings were made.
A rating of 100 indicates 100% disease control and a rating of 0 indicates no disease control (relative to the controls). A dash (−) indicates the compound was not tested.

Experiment [2] relates to Puccinia recondita f. sp. tritici. Kind of experiment: Test B: wheat leaf rust, preventive spray on wheat seedlings. A digest of the protocol: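 Preventive test: compound in acetone/water 50/50 with 250 ppm PEG400 was sprayed onto wheat seedlings one day before inoculation with leaf rust spores. After 24 h in saturated air and 7 days in a growth chamber, both at 20 °C, disease control was scored from 0 to 100 against controls.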

For a further experiment, the system named is Alternaria solani. Nature of the experiment: Test F: tomato early blight, preventive spray on tomato seedlings. A digest of the protocol:
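Preventive test: one day after the compound spray, seedlings were inoculated with A. solani, incubated saturated at 27 °C for 48 h, then kept at 20 °C for 3 days. Test suspensions contained acetone/water 50/50 with 250 ppm PEG400 surfactant. Visual ratings run from 0 (no control) to 100 (full control).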

Another experiment has as its system Phakopsora pachyrhizi. Kind of experiment: Test D: Asian soybean rust, preventive spray on soybean seedlings. The gist of the method:
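Compounds in acetone/water (50/50) with 250 ppm PEG400, dosed in ppm, sprayed to run-off on soybean seedlings; inoculated with P. pachyrhizi spores next day. Held 24 h at 22 °C in saturated air, then 8 days at 22 °C; visual rating of disease control, 0–100, relative to untreated controls.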

The subject of a further experiment is Septoria tritici. Nature of the experiment: Test A: wheat leaf blotch, preventive spray on wheat seedlings. A digest of the protocol: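 Preventive test: one day after spraying seedlings to run-off (concentrations in ppm; acetone/water, 250 ppm PEG400), Septoria tritici spores applied. Scored after 48 h humid incubation at 24 °C plus 17 days at 20 °C, as percent disease control versus untreated controls (100 = full control).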

Molecules are shown by their SMILES.

`Cc1nn(C)c(Nc2c(F)cc(Br)cc2[N+](=O)[O-])c1-c1ccc(C#N)cc1Cl` [compound 155]: the “Test E disease control rating” value with Botrytis cinerea is 100%. Moreover, the “Test C disease control rating” value in experiment [1] stood at 90%. The “Test B disease control rating” value in experiment [2] is given as 99%. Moreover, the “Test F disease control rating” value in the experiment on Alternaria solani amounted to 93%. In addition, the “Test D disease control rating” value in the experiment on Phakopsora pachyrhizi worked out at 0%. Further, the “Test A disease control rating” value in the experiment on Septoria tritici was 99%.
Turning to `Cc1nn(C)c(Nc2c(Cl)cccc2[N+](=O)[O-])c1-c1ccc(C#N)cc1Cl` [compound 123], in the experiment on Botrytis cinerea, the “Test E disease control rating” value came to 100%. The “Test C disease control rating” value in experiment [1] stood at 81%. Also, the “Test B disease control rating” value in experiment [2] is 97%. Besides, the “Test F disease control rating” value in the experiment on Alternaria solani came out at 66%. In the experiment on Phakopsora pachyrhizi, the “Test D disease control rating” value came out at 0%. For the same compound, the “Test A disease control rating” value in the experiment with Septoria tritici is recorded as 100%.
For the compound `Cc1cccc([N+](=O)[O-])c1Nc1c(-c2c(F)cc(F)cc2F)c(C)nn1C` [compound 167], in the experiment on Botrytis cinerea, the “Test E disease control rating” value worked out at 95%. The “Test C disease control rating” value in experiment [1] turned out to be 98%. Further, the “Test B disease control rating” value in experiment [2] is listed as 100%. The “Test F disease control rating” value in the experiment on Alternaria solani came to 98%. The “Test D disease control rating” value with Phakopsora pachyrhizi is recorded as 65%. In the experiment with Septoria tritici, the “Test A disease control rating” value is given as 100%.
For the compound `Cc1cc(F)c(Nc2c(-c3c(F)cc(F)cc3F)c(C)nn2C)c([N+](=O)[O-])c1` [compound 194], in the experiment on Botrytis cinerea, the “Test E disease control rating” value is 99%. The “Test C disease control rating” value in experiment [1] is recorded as 100%. For the same compound, in experiment [2], the “Test B disease control rating” value came out at 100%. In addition, the “Test F disease control rating” value in the experiment on Alternaria solani is given as 100%. Besides, the “Test D disease control rating” value in the experiment with Phakopsora pachyrhizi stood at 99%. For the same compound, the “Test A disease control rating” value with Septoria tritici was 100%.
For `Cc1nn(C)c(Nc2c(F)cc(Br)cc2[N+](=O)[O-])c1-c1ccc(F)cc1Br` [compound 191], the “Test E disease control rating” value with Botrytis cinerea amounted to 100%. For the same compound, the “Test C disease control rating” value in experiment [1] is reported as 99%. In addition, in experiment [2], the “Test B disease control rating” value was determined as 100%. For the same compound, the “Test F disease control rating” value in the experiment with Alternaria solani was found to be 100%. Besides, the “Test D disease control rating” value in the experiment with Phakopsora pachyrhizi amounted to 13%. Further, the “Test A disease control rating” value in the experiment on Septoria tritici is given as 100%.
For `COc1ccc(-c2c(C)nn(C)c2Nc2ccc(OC)cc2[N+](=O)[O-])c(Cl)c1` [compound 187], the “Test E disease control rating” value in the experiment on Botrytis cinerea is 100%. In experiment [1], the “Test C disease control rating” value amounted to 91%. For the same compound, the “Test B disease control rating” value in experiment [2] is 100%. Also, the “Test F disease control rating” value in the experiment on Alternaria solani is reported as 100%. Further, the “Test D disease control rating” value in the experiment with Phakopsora pachyrhizi was 0%. In addition, the “Test A disease control rating” value in the experiment with Septoria tritici came out at 99%.
For `CCc1nn(C)c(Nc2c(Cl)cc(C)cc2[N+](=O)[O-])c1-c1ccc(F)cc1F` [compound 16], the “Test E disease control rating” value in the experiment on Botrytis cinerea worked out at 99%. Also, the “Test C disease control rating” value in experiment [1] is reported as 98%. Further, the “Test B disease control rating” value in experiment [2] was 99%. The “Test F disease control rating” value in the experiment with Alternaria solani stood at 0%. Moreover, the “Test D disease control rating” value in the experiment on Phakopsora pachyrhizi amounted to 50%. Besides, in the experiment with Septoria tritici, the “Test A disease control rating” value is 100%.
Regarding `Cc1nn(C)c(Nc2ccc(F)cc2[N+](=O)[O-])c1-c1c(Cl)cccc1Cl` [compound 54], the “Test E disease control rating” value with Botrytis cinerea is listed as 21%. Also, the “Test C disease control rating” value in experiment [1] is recorded as 93%. In addition, the “Test B disease control rating” value in experiment [2] amounted to 91%. In the experiment on Alternaria solani, the “Test F disease control rating” value came out at 0%. Also, the “Test D disease control rating” value in the experiment with Phakopsora pachyrhizi is given as 0%. In addition, the “Test A disease control rating” value with Septoria tritici is listed as 100%.
Regarding `Cc1nn(C)c(Nc2c(F)cc(F)cc2[N+](=O)[O-])c1-c1c(F)cccc1F` [compound 75], in the experiment with Botrytis cinerea, the “Test E disease control rating” value turned out to be 57%. In experiment [1], the “Test C disease control rating” value worked out at 90%. Besides, in experiment [2], the “Test B disease control rating” value came to 99%. Besides, the “Test F disease control rating” value in the experiment on Alternaria solani amounted to 98%. For the same compound, the “Test D disease control rating” value with Phakopsora pachyrhizi is 0%. The “Test A disease control rating” value with Septoria tritici is listed as 100%.
As for `COc1ccc(Nc2c(-c3ccc(C#N)cc3Br)c(C)nn2C)c([N+](=O)[O-])c1` [compound 180], in the experiment on Botrytis cinerea, the “Test E disease control rating” value is listed as 99%. In addition, the “Test C disease control rating” value in experiment [1] is given as 79%. The “Test B disease control rating” value in experiment [2] turned out to be 98%. Also, in the experiment on Alternaria solani, the “Test F disease control rating” value came to 98%. For the same compound, the “Test D disease control rating” value in the experiment on Phakopsora pachyrhizi was 0%. Moreover, the “Test A disease control rating” value with Septoria tritici worked out at 100%.
Turning to `Cc1cc(Cl)c(Nc2c(-c3ccc(C#N)cc3Cl)c(C)nn2C)c([N+](=O)[O-])c1` [compound 156], the “Test E disease control rating” value in the experiment with Botrytis cinerea stood at 0%. In experiment [1], the “Test C disease control rating” value is recorded as 66%. Besides, in experiment [2], the “Test B disease control rating” value is given as 91%. Besides, in the experiment on Alternaria solani, the “Test F disease control rating” value amounted to 0%. In the experiment with Phakopsora pachyrhizi, the “Test D disease control rating” value is given as 0%. Besides, the “Test A disease control rating” value in the experiment on Septoria tritici is listed as 91%.
On to `Cc1nn(C)c(Nc2c(F)cccc2[N+](=O)[O-])c1-c1ccc(Cl)cc1F` [compound 12], for which the “Test E disease control rating” value in the experiment on Botrytis cinerea was 97%. Besides, the “Test C disease control rating” value in experiment [1] was 81%. Moreover, the “Test B disease control rating” value in experiment [2] is 99%. The “Test F disease control rating” value with Alternaria solani is 53%. For the same compound, the “Test D disease control rating” value in the experiment with Phakopsora pachyrhizi stood at 0%. Also, the “Test A disease control rating” value in the experiment on Septoria tritici is 100%.
As to `COc1ccc(Nc2c(-c3c(F)cc(F)cc3F)c(C)nn2C)c([N+](=O)[O-])c1` [compound 159], the “Test E disease control rating” value in the experiment with Botrytis cinerea worked out at 99%. The “Test C disease control rating” value in experiment [1] was found to be 100%. Besides, in experiment [2], the “Test B disease control rating” value was found to be 100%. In the experiment with Alternaria solani, the “Test F disease control rating” value came to 99%. The “Test D disease control rating” value in the experiment on Phakopsora pachyrhizi is 13%. In addition, in the experiment with Septoria tritici, the “Test A disease control rating” value came to 100%.
Turning to `Cc1nn(C)c(Nc2c(Cl)cccc2[N+](=O)[O-])c1-c1ccc(F)cc1Br` [compound 41], the “Test E disease control rating” value with Botrytis cinerea is on record as 77%. Also, the “Test C disease control rating” value in experiment [1] was 94%. Also, the “Test B disease control rating” value in experiment [2] is 100%. In addition, the “Test F disease control rating” value with Alternaria solani worked out at 0%. Also, the “Test D disease control rating” value with Phakopsora pachyrhizi was 77%. Besides, in the experiment on Septoria tritici, the “Test A disease control rating” value is reported as 100%.
For `Cc1nn(C)c(Nc2c(F)cc(Cl)cc2[N+](=O)[O-])c1-c1ccc(F)cc1Br` [compound 131], the “Test E disease control rating” value in the experiment with Botrytis cinerea is 99%. For the same compound, in experiment [1], the “Test C disease control rating” value turned out to be 99%. Also, the “Test B disease control rating” value in experiment [2] was 100%. Besides, the “Test F disease control rating” value in the experiment on Alternaria solani was determined as 100%. Besides, in the experiment with Phakopsora pachyrhizi, the “Test D disease control rating” value is 80%. In addition, the “Test A disease control rating” value with Septoria tritici came out at 100%.
Regarding `CCOc1ccc(Nc2c(-c3ccc(F)cc3Cl)c(C)nn2C)c([N+](=O)[O-])c1` [compound 103], the “Test E disease control rating” value in the experiment on Botrytis cinerea is given as 83%. The “Test C disease control rating” value in experiment [1] was determined as 50%. Besides, the “Test B disease control rating” value in experiment [2] is given as 80%. Besides, the “Test F disease control rating” value with Alternaria solani is given as 0%. In the experiment with Phakopsora pachyrhizi, the “Test D disease control rating” value came to 0%. Moreover, the “Test A disease control rating” value with Septoria tritici is 97%.
With `COc1cc(F)c(-c2c(C)nn(C)c2Nc2ccc(OC)cc2[N+](=O)[O-])c(F)c1` [compound 161], the “Test E disease control rating” value in the experiment with Botrytis cinerea is reported as 100%. In addition, the “Test C disease control rating” value in experiment [1] was found to be 100%. The “Test B disease control rating” value in experiment [2] amounted to 100%. Also, the “Test F disease control rating” value in the experiment on Alternaria solani amounted to 99%. Besides, the “Test D disease control rating” value with Phakopsora pachyrhizi was determined as 0%. In addition, the “Test A disease control rating” value in the experiment on Septoria tritici is reported as 100%.
With `Cc1nn(C)c(Nc2c(F)cccc2[N+](=O)[O-])c1-c1ccc(Cl)cc1Cl` [compound 69], the “Test E disease control rating” value in the experiment with Botrytis cinerea was 100%. The “Test C disease control rating” value in experiment [1] is recorded as 97%. In addition, in experiment [2], the “Test B disease control rating” value is given as 100%. In addition, in the experiment on Alternaria solani, the “Test F disease control rating” value was 99%. The “Test D disease control rating” value with Phakopsora pachyrhizi is on record as 77%. Besides, the “Test A disease control rating” value in the experiment with Septoria tritici is 100%.

The record behind these values is patent US20230148599A1, “FUNGICIDAL MIXTURES CONTAINING PYRAZOLE DERIVATIVES” (FMC Corporation, priority 2020, published 2023).
